Reference: US12655116B2, “Substituted isophthalic acid diamides” (Bayer Aktiengesellschaft, priority 2020, dated 2026)

What was measured:
ALOMY [1] = test: Pre-emergence herbicidal action against ALOMY; assay type: in vivo, Alopecurus myosuroides; details: pre-emergence
How it was run: (§1)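 Visual rating at 3 weeks vs untreated pots; 0–100% scale, 100% = plants died. Treatment: aqueous WP/EC spray onto covering soil, 600–800 l/ha, 0.2% wetter, seeds in sandy loam.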

LOLRI = test: Pre-emergence herbicidal action against LOLRI; assay type: in vivo, Lolium rigidum; details: 80 g/ha
How it was run: as §1

SETVI [2] = test: Pre-emergence herbicidal action against SETVI; assay type: in vivo, Setaria viridis; details: dosage 80 g/ha
How it was run: as §1

ABUTH [3] = test: Pre-emergence herbicidal action against ABUTH; assay type: in vivo, Abutilon theophrasti
How it was run: as §1

ECHCG [4] = test: Pre-emergence herbicidal action against ECHCG; assay type: in vivo, Echinochloa crus-galli
How it was run: as §1

AMARE [5] = test: Pre-emergence herbicidal action against AMARE; assay type: in vivo, Amaranthus retroflexus
How it was run: as §1

ABUTH [6] = test: Post-emergence herbicidal action against ABUTH; assay type: in vivo, Abutilon theophrasti; details: visual assessment about 3 weeks after treatment vs untreated controls
How it was run: (§2)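 Weeds in sandy loam soil received a post-emergence spray at the one-leaf stage. Compounds were applied as WP or EC in water, 600 to 800 l/ha, with 0.2% wetting agent. Activity in % was judged visually after roughly 3 weeks against untreated plants.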

ECHCG [7] = test: Post-emergence herbicidal action against ECHCG; assay type: in vivo, Echinochloa crus-galli
How it was run: as §2

AVEFA [8] = test: Post-emergence herbicidal action against AVEFA; assay type: in vivo, Avena fatua; details: 20 g/ha, visual assessment about 3 weeks after treatment, 100% = plants have died, 0% = like control plants
How it was run: as §2

MATIN [9] = test: Pre-emergence herbicidal action against MATIN; assay type: in vivo, Matricaria inodora
How it was run: as §1

VIOTR [10] = test: Post-emergence herbicidal action against VIOTR; assay type: in vivo, Viola tricolor; details: 20 g/ha
How it was run: as §2

SETVI [11] = test: Post-emergence herbicidal action against SETVI; assay type: in vivo, Setaria viridis
How it was run: as §2

ALOMY [12] = test: Post-emergence herbicidal action against ALOMY; assay type: in vivo, Alopecurus myosuroides; details: dosage 20 g/ha, visual assessment about 3 weeks after treatment vs untreated controls
How it was run: as §2

PHBPU [13] = test: Post-emergence herbicidal action against PHBPU; assay type: in vivo, Pharbitis purpurea
How it was run: as §2

VERPE [14] = test: Post-emergence herbicidal action against VERPE; assay type: in vivo, Veronica persica; details: 20 g/ha
How it was run: as §2

MATIN [15] = test: Post-emergence herbicidal action against MATIN; assay type: in vivo, Matricaria inodora
How it was run: as §2

PHBPU [16] = test: Pre-emergence herbicidal action against PHBPU; assay type: in vivo, Pharbitis purpurea
How it was run: as §1

AMARE [17] = test: Post-emergence herbicidal action against AMARE; assay type: in vivo, Amaranthus retroflexus; details: 20 g/ha, visual assessment about 3 weeks after treatment, 100% = plants have died, 0% = like control plants
How it was run: as §2

VERPE [18] = test: Pre-emergence herbicidal action against VERPE; assay type: in vivo, Veronica persica; details: dosage 80 g/ha
How it was run: as §1

VIOTR [19] = test: Pre-emergence herbicidal action against VIOTR; assay type: in vivo, Viola tricolor
How it was run: as §1

DIGSA = test: Pre-emergence herbicidal action against DIGSA; assay type: in vivo, Digitaria sanguinalis; details: Digitaria sanguinalis, 504 h
How it was run: as §1

POLCO = test: Pre-emergence herbicidal action against POLCO; assay type: in vivo, Polygonum convolvulus; details: Fallopia convolvulus, 504 h
How it was run: as §1

AVEFA [20] = test: Pre-emergence herbicidal action against AVEFA; assay type: in vivo, Avena fatua; details: Avena fatua, 504 h; 80 g/ha, pre-emergence
How it was run: as §1

[21] = 80 g/ha, scored visually after 3 weeks vs untreated controls (100% = plants have died, 0% = like control plants)
[22] = Tripleurospermum inodorum, 504 h, dosage 20 g/ha
[23] = Ipomoea purpurea, 504 h, dosage 20 g/ha

## CSc1c(C(=O)Nc2nnnn2C)ccc(C(F)F)c1C(=O)NCC(F)F [Example 1-92]
ALOMY [1]; [21]
  Pre-emergence action against ALOMY (herbicidal activity): 90%
LOLRI
  Pre-emergence action against LOLRI in %: 90%
SETVI [2]
  Pre-emergence action against SETVI in %: 100%
ABUTH [3]; [21]
  Pre-emergence action against ABUTH (herbicidal activity): 100%
ABUTH [3]; dosage 20 g/ha, scored visually after 3 weeks vs untreated controls, 100% = plants have died, 0% = like control plants
  Pre-emergence action against ABUTH (herbicidal activity in percent): 100%
ECHCG [4]; 80 g/ha
  Pre-emergence action against ECHCG in %: 100%
AMARE [5]; 20 g/ha, scored visually after 3 weeks vs untreated controls, 100% = plants have died, 0% = like control plants
  Pre-emergence action against AMARE in %: 100%
AMARE [5]; [21]
  Pre-emergence action against AMARE in %: 100%
ABUTH [6]; dosage 5 g/ha
  Post-emergence action against ABUTH in %: 90%
ABUTH [6]; dosage 20 g/ha
  Post-emergence action against ABUTH in %: 100%
ECHCG [7]; dosage 5 g/ha
  Post-emergence action against ECHCG in %: 100%
ECHCG [7]; dosage 20 g/ha
  Post-emergence action against ECHCG in %: 100%
AVEFA [8]
  Post-emergence action at 20 g/ha against AVEFA in %: 90%
MATIN [9]; dosage 20 g/ha
  Pre-emergence action against MATIN in %: 100%
MATIN [9]; dosage 80 g/ha
  Pre-emergence action against MATIN in %: 100%
VIOTR [10]
  Post-emergence action against VIOTR in %: 100%
SETVI [11]; dosage 5 g/ha
  Post-emergence action against SETVI in %: 90%
SETVI [11]; dosage 20 g/ha
  Post-emergence action against SETVI in %: 100%
ALOMY [12]
  Post-emergence action against ALOMY in %: 90%
PHBPU [13]; dosage 20 g/ha
  Post-emergence action against PHBPU in %: 90%
VERPE [14]
  Post-emergence action against VERPE in %: 90%
MATIN [15]; dosage 20 g/ha
  Post-emergence action against MATIN in %: 80%
PHBPU [16]; dosage 80 g/ha
  Pre-emergence action against PHBPU in %: 90%
AMARE [17]
  Post-emergence action at 20 g/ha against AMARE in %: 100%
VERPE [18]
  Pre-emergence action against VERPE in %: 100%
VIOTR [19]; dosage 80 g/ha
  Pre-emergence action against VIOTR in %: 100%

## CC(C)NC(=O)c1c(C(F)(F)F)ccc(C(=O)Nc2nnnn2C)c1Cl [Example 1-137]
ALOMY [1]; Alopecurus myosuroides, 504 h, 80 g/ha, scored visually after 3 weeks vs untreated controls (100% = plants have died, 0% = like control plants)
  pest or weed control at 80 g/ha: 90%
ALOMY [1]; Alopecurus myosuroides, 504 h, 20 g/ha, scored visually after 3 weeks, 100% = plants have died, 0% = like control plants
  pest or weed control at 20 g/ha: 90%
LOLRI; Lolium rigidum, 504 h
  pest or weed control at 80 g/ha: 90%
SETVI [2]; Setaria viridis, 504 h
  pest or weed control at 80 g/ha: 100%
ABUTH [3]; Abutilon theophrasti, 504 h, 80 g/ha, scored visually after 3 weeks vs untreated controls (100% = plants have died, 0% = like control plants)
  pest or weed control at 80 g/ha: 100%
ABUTH [3]; Abutilon theophrasti, 504 h, dosage 20 g/ha, scored visually after 3 weeks vs untreated controls, 100% = plants have died, 0% = like control plants, read-out: Pre-emergence action against ABUTH (herbicidal activity in percent)
  pest or weed control at 20 g/ha: 100%
DIGSA; dosage 20 g/ha
  pest or weed control at 20 g/ha: 100%
DIGSA; dosage 80 g/ha
  pest or weed control at 80 g/ha: 100%
ECHCG [4]; Echinochloa crus-galli, 504 h, 20 g/ha
  pest or weed control at 20 g/ha: 80%
ECHCG [4]; Echinochloa crus-galli, 504 h, 80 g/ha
  pest or weed control at 80 g/ha: 100%
AMARE [5]; Amaranthus retroflexus, 504 h, 20 g/ha, scored visually after 3 weeks vs untreated controls, 100% = plants have died, 0% = like control plants
  pest or weed control at 20 g/ha: 100%
AMARE [5]; Amaranthus retroflexus, 504 h, 80 g/ha, scored visually after 3 weeks vs untreated controls, 100% = plants have died, 0% = like control plants
  pest or weed control at 80 g/ha: 100%
ECHCG [7]; Echinochloa crus-galli, 504 h, dosage 5 g/ha
  pest or weed control at 5 g/ha: 90%
ECHCG [7]; Echinochloa crus-galli, 504 h, dosage 20 g/ha
  pest or weed control at 20 g/ha: 90%
AVEFA [8]; Avena fatua, 504 h
  pest or weed control at 20 g/ha: 80%
MATIN [9]; [22]
  pest or weed control at 20 g/ha: 100%
MATIN [9]; Tripleurospermum inodorum, 504 h, dosage 80 g/ha
  pest or weed control at 80 g/ha: 100%
SETVI [11]; Setaria viridis, 504 h, dosage 20 g/ha
  pest or weed control at 20 g/ha: 80%
ALOMY [12]; Alopecurus myosuroides, 504 h
  pest or weed control at 20 g/ha: 90%
PHBPU [13]; Ipomoea purpurea, 504 h, dosage 5 g/ha
  pest or weed control at 5 g/ha: 80%
PHBPU [13]; [23]
  pest or weed control at 20 g/ha: 80%
MATIN [15]; Tripleurospermum inodorum, 504 h, dosage 5 g/ha
  pest or weed control at 5 g/ha: 80%
MATIN [15]; [22]
  pest or weed control at 20 g/ha: 80%
PHBPU [16]; [23]
  pest or weed control at 20 g/ha: 80%
PHBPU [16]; Ipomoea purpurea, 504 h, dosage 80 g/ha
  pest or weed control at 80 g/ha: 90%
POLCO; dosage 20 g/ha
  pest or weed control at 20 g/ha: 80%
POLCO; dosage 80 g/ha
  pest or weed control at 80 g/ha: 100%
AMARE [17]; Amaranthus retroflexus, 504 h
  pest or weed control at 20 g/ha: 90%
VERPE [18]; Veronica persica, 504 h
  pest or weed control at 80 g/ha: 90%
AVEFA [20]
  pest or weed control at 80 g/ha: 90%
VIOTR [19]; Viola tricolor, 504 h, dosage 20 g/ha
  pest or weed control at 20 g/ha: 90%
VIOTR [19]; Viola tricolor, 504 h, dosage 80 g/ha
  pest or weed control at 80 g/ha: 100%
